Reference: US10696687B2, “Pyrazolo fused heterocyclic compounds as ERK inhibitors” (CHANGZHOU JIEKAI PHARMATECH CO., LTD., priority 2015, dated 2020)

Test system: Colon cancer cells (Colo205 cell line)
Assay: Colo205 cell proliferation assay (MTT assay, WST-8 readout)
Format: cell-based
Conditions: Homo sapiens, COLO 205, 72 hours incubation, absorbance at 450 nm, read-out: Colo 205 cell growth inhibition IC50
Description: Compounds disclosed herein were tested for the inhibition of ERK2 by a Colo205 cell proliferation assay commonly known as MTT assay. In this assay, a complete media was prepared by adding 10% fetal bovine serum to RPMI-1640 medium (Life technology). Colon cancer cells (Colo205 cell line) were added to each of 88 wells of a 96 well plate at a seeding density of 5,000 cells/well/90 μL. The cells were allowed to attach to the plate by incubating at 37° C. for 24 hours. The compound was dissolved in DMSO (SIGMA). A solution of test compound was prepared in complete media by serial dilution to obtain the following concentrations: 500 μM, 150 μM, 50 μM, 15 μM, 5 μM, 1.5 μM, 0.5 μM, 0.15 μM and 0.05 μM. The test compound solution (10 μL) was added to each of 80 cell-containing wells. The final concentrations of the compound were following: 50 μM, 15 μM, 5 μM, 1.5 μM, 0.5 μM, 0.15 μM, 0.05 μM, 0.015 μM and 0.005 μM. The final concentration of DMSO is 0.5%. To the 8 remaining cell-containing wells, only complete media (containing 0.5% DMSO) was added to form a control group in order to measure maximal proliferation. To the remaining 8 empty wells, complete media was added to for a vehicle control group in order to measure background. The plates were incubated at 37° C. for 72 hours. 10 μL WST-8 solution (DOJINDO, Cell Counting KIT-8) was added to each well. The plates were further incubated at 37° C. for 2 hours, and then read for the absorbance using a microplate reader at 450 nm.

Row | SMILES | IC50
1 | Cc1cc(-c2n[nH]c3ncc(C(=O)N[C@H]4CNC[C@@H]4c4ccccc4C(F)(F)F)cc23)ccn1 (stereo in doubt) [Compound 19, 3-(2-methylpyridin-4-yl)-N-(-4-(2-(trifluoromethyl)phenyl)pyrrolidin-3-yl)-1H-pyrazolo[3,4-b]pyridine-5-carboxamide] | 0.052 to 10 µM
2 | Cc1cc(-c2n[nH]c3ncc(C(=O)N[C@H]4CN(C)C[C@@H]4c4ccccc4F)cc23)ccn1 (relative stereo) [Compound 16, trans-N-(-4-(2-fluorophenyl)-1-methylpyrrolidin-3-yl)-3-(2-methylpyridin-4-yl)-1H-pyrazolo[3,4-b]pyridine-5-carboxamide] | 0.052 to 10 µM
3 | Cc1cc(-c2n[nH]c3ncc(C(=O)N[C@H]4CN(C)C[C@@H]4c4ccc(F)cc4)cc23)ccn1 (relative stereo) [Compound 24, trans-N-(-4-(4-fluorophenyl)-1-methylpyrrolidin-3-yl)-3-(2-methylpyridin-4-yl)-1H-pyrazolo[3,4-b]pyridine-5-carboxamide] | 0.052 to 10 µM
4 | Cc1cc(-c2n[nH]c3nc(NC(=O)N[C@H](C)c4ccccc4)ccc23)ccn1 [Compound 2, (R)-1-(3-(2-methylpyridin-4-yl)-1H-pyrazolo[3,4-b]pyridin-6-yl)-3-(1-phenylethyl)urea] | 0.052 to 10 µM
5 | Cc1cc(-c2n[nH]c3ncc(C(=O)N[C@H]4CN(S(C)(=O)=O)C[C@@H]4c4ccccc4C(F)(F)F)cc23)ccn1 (stereo in doubt) [Compound 20, 3-(2-methylpyridin-4-yl)-N-(-1-(methylsulfonyl)-4-(2-(trifluoromethyl)phenyl)pyrrolidin-3-yl)-1H-pyrazolo[3,4-b]pyridine-5-carboxamide] | 0.052 to 10 µM
6 | CN1C[C@H](NC(=O)c2cnc3[nH]nc(-c4ccnc(C(F)(F)F)c4)c3c2)[C@@H](c2ccccc2C(F)(F)F)C1 (stereo in doubt) [Compound 18, N-(-1-methyl-4-(2-(trifluoromethyl)phenyl)pyrrolidin-3-yl)-3-(2-(trifluoromethyl)pyridin-4-yl)-1H-pyrazolo[3,4-b]pyridine-5-carboxamide] | 0.052 to 10 µM
7 | CN1C[C@H](NC(=O)c2cnc3[nH]nc(N4CCOCC4)c3c2)[C@@H](c2ccccc2C(F)(F)F)C1 (relative stereo) [Compound 9, trans-N-(1-methyl-4-(2-(trifluoromethyl)phenyl)pyrrolidin-3-yl)-3-morpholino-1H-pyrazolo[3,4-b]pyridine-5-carboxamide] | 0.052 to 10 µM
8 | Cc1cc(-c2n[nH]c3ncc(C(=O)N[C@H]4CN(C)C[C@@H]4c4ccccc4C(F)(F)F)cc23)ccn1 (single isomer, unassigned) [Compound 15] | 0.052 to 10 µM
9 | Cc1cc(-c2n[nH]c3ncc(C(=O)N[C@@H]4CN(C(C)C)C[C@H]4c4ccccc4C(F)(F)F)cc23)ccn1 [Compound 21, N-((3S,4R)-1-isopropyl-4-(2-(trifluoromethyl)phenyl)pyrrolidin-3-yl)-3-(2-methylpyridin-4-yl)-1H-pyrazolo[3,4-b]pyridine-5-carboxamide] | 0.052 to 10 µM
10 | Cc1cc(-c2n[nH]c3ccc(C(=O)N[C@H]4CN(C)C[C@@H]4c4ccccc4F)cc23)ccn1 (relative stereo) [Compound 23, trans-N-(-4-(2-fluorophenyl)-1-methylpyrrolidin-3-yl)-3-(2-methylpyridin-4-yl)-1H-indazole-5-carboxamide] | 0.052 to 10 µM
11 | COc1ncc(-c2n[nH]c3ncc(C(=O)N[C@H]4CN(C)C[C@@H]4c4ccccc4C(F)(F)F)cc23)cn1 (relative stereo) [Compound 17, trans-3-(2-methoxypyrimidin-5-yl)-N-(-1-methyl-4-(2-(trifluoromethyl)phenyl)pyrrolidin-3-yl)-1H-pyrazolo[3,4-b]pyridine-5-carboxamide] | 0.052 to 10 µM
12 | Cc1cc(-c2n[nH]c3ncc(C(=O)N[C@@H]4CN(C)C[C@H]4c4ccccc4C(F)(F)F)cc23)ccn1 (racemic) [Compound 3, trans-N-(1-methyl-4-(2-(trifluoromethyl)phenyl)pyrrolidin-3-yl)-3-(2-methylpyridin-4-yl)-1H-pyrazolo[3,4-b]pyridine-5-carboxamide] | 0.052 to 10 µM

More lines, now with the values ahead:

Row | IC50 | SMILES
13 | 0.052 to 10 µM | Cc1cc(-c2n[nH]c3ccc(C(=O)N[C@@H]4CN(C)C[C@H]4c4ccccc4C(F)(F)F)cc23)ccn1 [Compound 39, N-((3S,4R)-1-methyl-4-(2-(trifluoromethyl)phenyl)pyrrolidin-3-yl)-3-(2-methylpyridin-4-yl)-1H-indazole-5-carboxamide]
14 | 0.052 to 10 µM | CCN1C[C@H](NC(=O)c2cnc3[nH]nc(-c4ccnc(C)c4)c3c2)[C@@H](c2ccccc2C(F)(F)F)C1 (relative stereo) [Compound 26, trans-N-(-1-ethyl-4-(2-(trifluoromethyl)phenyl)pyrrolidin-3-yl)-3-(2-methylpyridin-4-yl)-1H-pyrazolo[3,4-b]pyridine-5-carboxamide]
15 | 0.052 to 10 µM | Cc1cc(-c2n[nH]c3ccc(C(=O)N[C@H]4CN(C)C[C@@H]4c4ccccc4C(F)(F)F)cc23)ccn1 [Compound 41, N-((3R,4S)-1-methyl-4-(2-(trifluoromethyl)phenyl)pyrrolidin-3-yl)-3-(2-methylpyridin-4-yl)-1H-indazole-5-carboxamide]
16 | 0.052 to 10 µM | Cc1cc(-c2n[nH]c3ccc(C(=O)N[C@@H]4CN(C)C[C@H]4c4ccccc4Cl)cc23)ccn1 (relative stereo) [Compound 31, trans-N-(-4-(2-chlorophenyl)-1-methylpyrrolidin-3-yl)-3-(2-methylpyridin-4-yl)-1H-indazole-5-carboxamide]
17 | 0.052 to 10 µM | Cc1cc(-c2n[nH]c3ncc(C(=O)N[C@H]4CN(C)C[C@@H]4c4ccccc4Cl)cc23)ccn1 [Compound 34, N-((3R,4S)-4-(2-chlorophenyl)-1-methylpyrrolidin-3-yl)-3-(2-methylpyridin-4-yl)-1H-pyrazolo[3,4-b]pyridine-5-carboxamide]
18 | 0.052 to 10 µM | Cc1cc(-c2n[nH]c3ncc(C(=O)N[C@@H]4CN(C)C[C@H]4c4ccccc4)cc23)ccn1 (relative stereo) [Compound 38, Trans-N-(1-methyl-4-phenylpyrrolidin-3-yl)-3-(2-methylpyridin-4-yl)-1H-pyrazolo[3,4-b]pyridine-5-carboxamide]
19 | 0.052 to 10 µM | Cc1cc(-c2n[nH]c3ncc(C(=O)N[C@@H]4C[C@H]4c4ccccc4Cl)cc23)ccn1 (relative stereo) [Compound 40, trans-N-(2-(2-chlorophenyl)cyclo-propyl)-3-(2-methylpyridin-4-yl)-1H-pyrazolo[3,4-b]pyridine-5-carboxamide]
20 | 0.052 to 10 µM | Cc1cc(-c2n[nH]c3ncc(C(=O)N[C@H]4CN(C)C[C@@H]4c4ccc(F)cc4Cl)cc23)ccn1 (relative stereo) [Compound 28, trans-N-(-4-(2-chloro-4-fluorophenyl)-1-methylpyrrolidin-3-yl)-3-(2-methylpyridin-4-yl)-1H-pyrazolo[3,4-b]pyridine-5-carboxamide]
21 | 0.052 to 10 µM | CCCN1C[C@H](NC(=O)c2cnc3[nH]nc(-c4ccnc(C)c4)c3c2)[C@@H](c2ccccc2C(F)(F)F)C1 (relative stereo) [Compound 29, trans-3-(2-methylpyridin-4-yl)-N-(-1-propyl-4-(2-(trifluoromethyl)phenyl)pyrrolidin-3-yl)-1H-pyrazolo[3,4-b]pyridine-5-carboxamide]
